From ChEMBL document CHEMBL1142675, “CH...O and CH...N hydrogen bonds in ligand design: a novel quinazolin-4-ylthiazol-2-ylamine protein kinase inhibitor” (J Med Chem, 2005)

Target: Glycogen synthase kinase-3 (Homo sapiens, UniProt P49840+P49841)
Experiment: Inhibition of Glycogen synthase kinase-3
Type: protein assay

Row | Compound | Ki
1 | Cc1cc(Nc2nc(-c3ccccc3)nc3ccccc23)no1 | > 2000 nM
2 | Cc1cc(Nc2cc(-c3ccccc3)nc3ccccc23)[nH]n1 | 2500 nM
3 | Cc1cnc(Nc2nc(-c3ccccc3)nc3ccccc23)s1 | 150 nM

Now from value to compound:

Row | Ki | Compound
4 | 23000 nM | Cc1n[nH]c(Nc2nc(-c3ccccc3)nc3ccccc23)n1
5 | 110 nM | c1ccc(-c2nc(Nc3cc[nH]n3)c3ccccc3n2)cc1
6 | 24 nM | Cc1cc(Nc2nc(-c3ccccc3)nc3ccccc23)n[nH]1
7 | 250 nM | c1ccc(-c2nc(Nc3nc[nH]n3)c3ccccc3n2)cc1
